A short description of test [1]: Displacement of [3H]dexamethasone from human glucocorticoid receptor alpha. In general terms: Loss of bound radioactivity is the signal in a displacement assay; it reports binding, not function.
The target in test [2] is T1, Glucocorticoid receptor (Homo sapiens) (UniProt P04150).
T1 sequence (whole entry): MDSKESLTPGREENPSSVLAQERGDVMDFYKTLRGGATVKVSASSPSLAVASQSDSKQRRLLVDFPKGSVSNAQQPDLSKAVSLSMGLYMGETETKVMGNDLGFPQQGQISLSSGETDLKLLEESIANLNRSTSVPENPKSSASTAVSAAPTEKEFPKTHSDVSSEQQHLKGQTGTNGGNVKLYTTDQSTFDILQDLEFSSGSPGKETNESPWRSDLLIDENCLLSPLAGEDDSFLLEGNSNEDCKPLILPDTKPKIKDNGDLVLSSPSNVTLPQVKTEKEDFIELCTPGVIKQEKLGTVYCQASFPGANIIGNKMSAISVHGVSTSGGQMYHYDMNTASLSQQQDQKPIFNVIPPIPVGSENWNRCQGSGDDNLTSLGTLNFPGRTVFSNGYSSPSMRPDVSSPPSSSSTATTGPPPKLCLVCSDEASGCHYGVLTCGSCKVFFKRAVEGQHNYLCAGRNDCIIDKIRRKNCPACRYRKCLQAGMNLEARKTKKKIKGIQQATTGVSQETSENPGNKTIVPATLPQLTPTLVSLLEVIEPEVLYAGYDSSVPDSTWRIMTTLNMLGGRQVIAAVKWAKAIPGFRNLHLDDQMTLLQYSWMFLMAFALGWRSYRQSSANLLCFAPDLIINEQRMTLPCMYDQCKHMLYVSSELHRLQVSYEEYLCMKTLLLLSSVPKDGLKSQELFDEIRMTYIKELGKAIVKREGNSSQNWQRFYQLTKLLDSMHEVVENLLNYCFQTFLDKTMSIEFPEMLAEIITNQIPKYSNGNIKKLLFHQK
Briefly: Activity at human glucocorticoid receptor in human HepG2 cells assessed as tyrosine amino transferase activity. Type of test: cell-based.

Test [3] deals with Glucocorticoid receptor (Mus musculus) (UniProt P06537). Description: Activity at mouse glucocorticoid receptor in C2C12 cells assessed as mouse glutamine synthetase activity.
Chain of Glucocorticoid receptor (Mus musculus) (P06537 whole entry, looked up): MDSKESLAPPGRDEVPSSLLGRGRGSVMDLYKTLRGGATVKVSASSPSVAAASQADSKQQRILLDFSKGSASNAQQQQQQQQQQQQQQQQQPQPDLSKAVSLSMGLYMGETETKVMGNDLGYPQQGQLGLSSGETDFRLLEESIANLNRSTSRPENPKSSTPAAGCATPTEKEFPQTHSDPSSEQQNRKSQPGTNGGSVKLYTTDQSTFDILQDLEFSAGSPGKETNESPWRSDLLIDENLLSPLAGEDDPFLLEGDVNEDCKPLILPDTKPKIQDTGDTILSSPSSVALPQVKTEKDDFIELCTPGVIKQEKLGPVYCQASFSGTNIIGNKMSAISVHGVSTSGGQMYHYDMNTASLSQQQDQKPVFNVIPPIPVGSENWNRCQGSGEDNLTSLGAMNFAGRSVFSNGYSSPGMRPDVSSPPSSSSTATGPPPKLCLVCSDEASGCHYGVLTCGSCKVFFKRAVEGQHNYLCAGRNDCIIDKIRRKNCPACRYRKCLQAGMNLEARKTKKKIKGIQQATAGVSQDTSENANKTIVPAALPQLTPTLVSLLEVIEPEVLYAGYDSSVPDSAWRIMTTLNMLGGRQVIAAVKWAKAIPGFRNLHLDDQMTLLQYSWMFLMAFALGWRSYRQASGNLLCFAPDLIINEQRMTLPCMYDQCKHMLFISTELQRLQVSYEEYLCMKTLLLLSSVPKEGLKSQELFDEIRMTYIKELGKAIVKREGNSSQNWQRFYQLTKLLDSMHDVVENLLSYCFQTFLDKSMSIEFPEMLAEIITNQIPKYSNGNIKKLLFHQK
Test [4] deals with Mus musculus. Briefly: Antiinflammatory activity in mouse assessed as inhibition of LPS-induced TNFalpha at 30 mg/kg relative to prednisolone. Type of test: functional.
Test [5] has as its system Mus musculus. Description: Normalized AUC in iv dosed mouse. Type of test: functional, organism-based.
Test [6] deals with Mus musculus. Description: Clearance in iv dosed mouse. Type of test: functional, organism-based.
In test [7] the test system is Mus musculus. Briefly: Half life in iv dosed mouse. Type of test: functional, organism-based.
For test [8], the system named is Mus musculus. Description: Oral bioavailability in mouse. Type of test: functional, organism-based.
For test [9], the target named is T2, Glucocorticoid receptor (Homo sapiens, UniProt P04150).
T2 sequence (P04150 whole entry): T1 sequence (whole entry)
Briefly: (§1) Activity at human glucocorticoid receptor in human A549 cells assessed as repression of human IL6. Type of test: cell-based.

Test [10] deals with T1, Glucocorticoid receptor (Homo sapiens). Described as §1. Type of test: cell-based.
Test [11] deals with Mus musculus. Description: Antiinflammatory activity in mouse assessed as inhibition of LPS-induced TNFalpha at 3 mg/kg. Type of test: functional. Also noted: scale not given: the % may be the effect or the level left.
The species entered for test [12] is Mus musculus. Description: animal or person. The following applies: read-out: Inhibition.

Calls of active or inactive are those of the source. The calls are words filed in the database; no cut-off is given here.

For orientation: IC50 means the concentration at which inhibition is half-maximal. As to `C[C@]12Cc3cnn(-c4ccc(F)cc4)c3C=C1CC[C@@H]2[C@@H](O)c1ccc2ccccc2c1`, the IC50 in test [1] was 86 nM. For the same compound, the outcome in test [2] and in [3] was inactive.
In the case of `C[C@]12Cc3cnn(-c4ccc(F)cc4)c3C=C1CC[C@@H]2[C@@H](O)c1cc2ccccc2s1`, in [1], the half-maximal inhibitory concentration (IC50) came out at 69.1 nM. The outcome in [2] and in test [3] was inactive.
As to `C[C@]12Cc3cnn(-c4ccc(F)cc4)c3C=C1CCC[C@@H]2[C@@H](O)c1csc2ccccc12`, in test [1], the concentration for half-maximal inhibition (IC50) was found to be 5.1 nM.
By EC50 is commonly meant the concentration at which the effect is half-maximal. Consider `C[C@]12Cc3cnn(-c4ccc(F)cc4)c3C=C1CCC[C@@H]2[C@@H](O)c1cc2ccccc2s1`, for which, in test [3], the EC50 stood at 1210 nM.
In test [1], `C[C@]12Cc3cnn(-c4ccc(F)cc4)c3C=C1CCC[C@@H]2[C@H](O)c1csc2ccccc12` came in with an IC50 of 1.5 nM. Besides, the EC50 in test [3] is 3 nM.
Take `C[C@]12Cc3cnn(-c4ccc(F)cc4)c3C=C1CC[C@@H]2[C@H](O)c1csc2ccccc12`: the inhibition in vivo at 30 mg/kg in test [4] is 103%. In addition, the AUC in [5] is 1.7 µM·h/mg/kg. This compound also displayed a CL (mL.min-1.kg-1) in test [6] of 22.3. In addition, the T1/2 in [7] was 7.8 h. Further, the bioavailability in test [8] was found to be 34%.
For the compound `C[C@]12Cc3cnn(-c4ccc(F)cc4)c3C=C1CC[C@@H]2[C@@H](O)c1csc2ccccc12`, in test [4], the inhibition in vivo at 30 mg/kg came out at 113%.
`C[C@]12Cc3cnn(-c4ccc(F)cc4)c3C=C1CCC[C@@H]2[C@@H](O)c1ccsc1` returned an IC50 in test [1] of 5.1 nM. For the same compound, the EC50 in [9] was 1 nM.
Consider `C[C@]12Cc3cnn(-c4ccc(F)cc4)c3C=C1CC[C@@H]2[C@H](O)c1cc2ccccc2s1`, for which, in test [1], the IC50 stood at 689 nM. Moreover, the result in [10] and in test [2] was inactive.
In [1], `C[C@]12Cc3cnn(-c4ccc(F)cc4)c3C=C1CC[C@@H]2[C@H](O)c1ccc2ccccc2c1` returned a 50% inhibitory concentration (IC50) of 198 nM. Also, the outcome in test [2] and in test [3] was inactive.
In the case of `C[C@]12C=CC(=O)C=C1CC[C@@H]1[C@@H]2[C@@H](O)C[C@@]2(C)[C@H]1CC[C@]2(O)C(=O)CO` [PREDNISOLONE], the Activity in [11] is on record as 71%. Further, the inhibition in vivo at 3 mg/kg in test [12] is 100%.

These data come from ChEMBL document CHEMBL1148027, “Novel glucocorticoids containing a 6,5-bicyclic core fused to a pyrazole ring: synthesis, in vitro profile, molecular modeling studies, and in vivo experiments” (Bioorg Med Chem Lett, 2007).
